Measured values: patent US11498930B2 (BLUERAY THERAPEUTICS (SHANGHAI) CO., LTD., priority 2018, dated 2022)
Like-named read-outs stand apart in the source and are kept apart here.

Tests used:
[1] = test system: phosphorylation level of intracellular protein kinase (ERK) in MOLM13 cells; experiment: Phosphorylated protein kinase (p-ERK) cell experiment (AlphaLISA); assay type: cell-based; conditions: Homo sapiens, MOLM-13, MOLM13 cells
Experimental: The inhibitory activities of the compounds on the phosphorylation level of intracellular protein kinase (ERK) were determined by AlphaLISA method.
Firstly, the cells were treated with the compounds. The compounds to be tested were subjected to 3-fold dilution with 100% DMSO, and a total of 9 different concentration gradients were set. MOLM13 cells were then seeded into 96-well plates at a density of 30,000 cells per well in a volume of 100 µL per well. […] of DMSO or the test compounds with different concentrations was then transferred into each well, setting two duplicates for each concentration, and the final concentration of DMSO was controlled at 0.5%.
Secondly, the cells were lysed. After 2 hours of cell treatment, the medium was removed, and the cells were washed 3 times with phosphate buffered saline. 50 µL of freshly prepared lysis buffer was added to each well, and the plates were shaken and kept at room temperature for 10 minutes.
Thirdly, the phosphorylated extracellular signal-regulated kinase (p-ERK) was detected by AlphaLISA@ SureFire® Ultra™ p-ERK 1/2 (Thr202/Tyr204) kit (Perkin Elmer, ALSU-PERK-A10K). 10 µL of the above lysate was transferred to a 384-well plate (Perkin Elmer, 6005350), and the phosphorylation level of the extracellular signal-regulated kinase of the sample was detected according to the product instructions. The signal was read using AlphaScreen detector on Spectra max i3 (Molecular Devices). The percentage of inhibition (%) was calculated by the following formula: Inhibition percentage(%)=(1−p-ERK signal of compound-treated cells/p-ERK signal of DMSO-treated cells)*100

MOLM-13 cells = experiment: MOLM-13 cell proliferation experiment; assay type: cell-based; conditions: Homo sapiens
Experimental: After 3 days, 5 µL of CellTiter-Glo reagent (Promega, ZG7572) was added to each well, and the plates were kept at room temperature in the dark for 10 minutes. The […] was detected by Spectra max i3 (Molecular Devices). The relative growth rate of the treated cells was compared with that of DMSO control.

SHP2^E76A protein = SHP2^E76A protein (Homo sapiens (Human), UniProt Q06124, E76A); experiment: SHP2 enzyme activity inhibition experiment; assay type: biochemical
Method in brief: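 Compounds tested at 10 concentrations in 3-fold serial dilution. IC50 from a four-parameter Hill-slope nonlinear fit of enzyme activity versus concentration.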

[2] = p-ERK, 2 hours of cell treatment, Tables 2.1 and 2.2, read-out: IC50
[3] = MOLM-13, 72 h, MOLM-13 cell proliferation, 3 days, Tables 3.1 and 3.2, read-out: IC50
[4] = SHP2 enzyme activity, Tables 1.1 and 1.2, read-out: IC50
[5] = MOLM-13, read-out: MOLM-13 cell proliferation IC50
[6] = Table 4, read-out: SHP2 enzyme activity IC50

Chain of SHP2^E76A protein (Q06124 whole entry E76A): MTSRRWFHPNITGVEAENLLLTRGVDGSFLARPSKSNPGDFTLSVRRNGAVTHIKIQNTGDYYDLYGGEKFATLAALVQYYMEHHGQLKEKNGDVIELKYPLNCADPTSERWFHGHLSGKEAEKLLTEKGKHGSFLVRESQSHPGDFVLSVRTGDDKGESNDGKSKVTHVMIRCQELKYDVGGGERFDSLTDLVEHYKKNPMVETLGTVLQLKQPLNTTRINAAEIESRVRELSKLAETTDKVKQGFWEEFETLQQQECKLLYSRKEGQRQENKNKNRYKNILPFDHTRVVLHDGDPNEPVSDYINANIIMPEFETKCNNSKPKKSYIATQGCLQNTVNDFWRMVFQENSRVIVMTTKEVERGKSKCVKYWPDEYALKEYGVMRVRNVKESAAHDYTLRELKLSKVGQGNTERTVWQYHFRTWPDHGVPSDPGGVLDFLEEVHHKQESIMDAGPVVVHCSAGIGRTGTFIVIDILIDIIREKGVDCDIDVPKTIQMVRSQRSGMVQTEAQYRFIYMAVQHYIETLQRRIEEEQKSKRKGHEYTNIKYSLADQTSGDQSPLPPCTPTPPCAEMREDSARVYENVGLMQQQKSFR

SMILES	IC50 [1, 2]	IC50 (MOLM-13 cells; [3])	IC50 (SHP2^E76A protein; [4])	IC50 ([1]; Table 4, read-out: p-ERK IC50)	IC50 (MOLM-13 cells; [5])	IC50 (SHP2^E76A protein; [6])
Nc1nccc(Sc2cnc(N3CCC4(CC3)COC[C@H]4N)n3cnnc23)c1Cl [(S)-8-(8-((2-amino-3-chloropyridin-4-yl)thio)-[1,2,4]triazolo[4,3-c]pyrimidin-5-yl)-2-oxa-8-azaspiro[4.5]decan-4-amine]	100 to 1000 nM	1000 to 10000 nM	100 to 1000 nM	–	–	–
Nc1cc(Sc2cnc(N3CCC4(CCC[C@H]4N)CC3)n3ccnc23)c(Cl)cn1 [(R)-8-(8-((2-amino-5-chloropyridin-4-yl)thio)imidazo[1,2-c]pyrimidin-5-yl)-8-azaspiro[4.5]decan-1-amine]	< 100 nM	< 100 nM	< 100 nM	32 nM	43 nM	25 nM
Nc1nccc(Sc2cnc(N3CCC4(CC3)COC[C@H]4N)n3ccnc23)c1Cl [(S)-8-(8-((2-amino-3-chloropyridin-4-yl)thio)imidazo[1,2-c]pyrimidin-5-yl)-2-oxa-8-azaspiro[4.5]decan-4-amine]	100 to 1000 nM	100 to 1000 nM	< 100 nM	–	–	–
C=CC(=O)Nc1cccc(Sc2cnc(N3CCC4(CCC[C@H]4N)CC3)n3cnnc23)c1Cl [(R)-N-(3-((5-(1-amino-8-azaspiro[4.5]decan-8-yl)-[1,2,4]triazolo[4,3-c]pyrimidin-8-yl)thio)-2-chlorophenyl)acrylamide]	1000 to 10000 nM	100 to 1000 nM	100 to 1000 nM	–	–	–
N[C@@H]1COCC12CCN(c1ncc(Sc3cccc(Cl)c3Cl)c3nncn13)CC2 [(S)-8-(8-((2,3-dichlorophenyl)thio)-[1,2,4]triazolo[4,3-c]pyrimidin-5-yl)-2-oxa-8-azaspiro[4.5]decan-4-amine]	100 to 1000 nM	100 to 1000 nM	< 100 nM	168 nM	892 nM	20 nM
COc1nccc(Sc2cnc(N3CCC4(CCC[C@H]4N)CC3)n3ccnc23)c1Cl [(R)-8-(8-((3-chloro-2-methoxypyridin-4-yl)thio)imidazo[1,2-c]pyrimidin-5-yl)-8-azaspiro[4.5]decan-1-amine]	100 to 1000 nM	100 to 1000 nM	< 100 nM	–	–	–
C[C@@H]1OCC2(CCN(c3ncc(Sc4cccc(Cl)c4Cl)c4nccn34)CC2)[C@@H]1N [(3S,4S)-8-(8-((2,3-dichlorophenyl)thio)imidazo[1,2-c]pyrimidin-5-yl)-3-methyl-2-oxa-8-azaspiro[4.5]decan-4-amine]	100 to 1000 nM	< 100 nM	< 100 nM	103 nM	68 nM	8 nM
NCC1CCN(c2ncc(Sc3cccc(Cl)c3Cl)c3nncn23)C1 (stereo not drawn) [(1-(8-((2,3-dichlorophenyl)thio)-[1,2,4]triazolo[4,3-c]pyrimidin-5-yl)pyrrolidin-3-yl)methanamine]	1000 to 10000 nM	1000 to 10000 nM	100 to 1000 nM	–	–	–
Cc1nc(N)cc(Sc2cnc(N3CCC4(CC3)CO[C@@H](C)[C@H]4N)n3ccnc23)c1Cl [(3S,4S)-8-(8-((6-amino-3-chloro-2-methyl-pyridin-4-yl)thio)imidazo[1,2-c]pyrimidin-5-yl)-3-methyl-2-oxa-8-azaspiro[4.5]decan-4-amine]	< 100 nM	< 100 nM	< 100 nM	43 nM	42 nM	16 nM
C[C@@H]1OCC2(CCN(c3ncc(Sc4ccnc(Cl)c4Cl)c4nncn34)CC2)[C@@H]1N [(3S,4S)-8-(8-((2,3-dichloropyridin-4-yl)thio)-[1,2,4]triazolo[4,3-c]pyrimidin-5-yl)-3-methyl-2-oxa-8-azaspiro[4.5]decan-4-amine]	–	–	< 100 nM	161 nM	133 nM	5 nM
CC1(N)CCN(c2ncc(Sc3cccc(Cl)c3Cl)c3nncn23)CC1 [1-(8-((2,3-dichlorophenyl)thio)-[1,2,4]triazolo[4,3-c]pyrimidin-5-yl)-4-methylpiperidin-4-amine]	1000 to 10000 nM	1000 to 10000 nM	100 to 1000 nM	–	–	–
N[C@@H]1CCCC12CCN(c1ncc(Sc3ccnc(Cl)c3Cl)c3nccn13)CC2 [(R)-8-(8-((2,3-dichloropyridin-4-yl)thio)imidazo[1,2-c]pyrimidin-5-yl)-8-azaspiro[4.5]decan-1-amine]	100 to 1000 nM	< 100 nM	< 100 nM	159 nM	42 nM	57 nM
C[C@@H]1OCC2(CCN(c3ncc(Sc4ccnc(N)c4Cl)c4nccn34)CC2)[C@@H]1N [(3S,4S)-8-(8-((2-amino-3-chloropyridin-4-yl)thio)imidazo[1,2-c]pyrimidin-5-yl)-3-methyl-2-oxa-8-azaspiro[4.5]decan-4-amine]	100 to 1000 nM	< 100 nM	< 100 nM	150 nM	76 nM	20 nM
N[C@@H]1CCCC12CCN(c1ncc(Sc3cccc4ccccc34)c3nccn13)CC2 [(R)-8-(8-(naphthalen-1-ylthio)imidazo[1,2-c]pyrimidin-5-yl)-8-azaspiro[4.5]decan-1-amine]	100 to 1000 nM	100 to 1000 nM	< 100 nM	490 nM	150 nM	28 nM
C=CC(=O)Nc1cccc(Sc2cnc(N3CCC4(CCC[C@H]4N)CC3)n3ccnc23)c1Cl [(R)-N-(3-((5-(1-amino-8-azaspiro[4.5]decan-8-yl)imidazo[1,2-c]pyrimidin-8-yl)thio)-2-chlorophenyl)acrylamide]	100 to 1000 nM	100 to 1000 nM	100 to 1000 nM	–	–	–
C[C@@H]1OCC2(CCN(c3ncc(Sc4ccnc(Cl)c4Cl)c4nccn34)CC2)[C@@H]1N [(3S,4S)-8-(8-((2,3-dichloropyridin-4-yl)thio)imidazo[1,2-c]pyrimidin-5-yl)-3-methyl-2-oxa-8-azaspiro[4.5]decan-4-amine]	< 100 nM	< 100 nM	< 100 nM	35 nM	38 nM	5 nM
C[C@@H]1OCC2(CCN(c3ncc(Sc4cc(N)nc(Cl)c4Cl)c4nccn34)CC2)[C@@H]1N [(3S,4S)-8-(8-((6-amino-2,3-dichloropyridin-4-yl)thio)imidazo[1,2-c]pyrimidin-5-yl)-3-methyl-2-oxa-8-azaspiro[4.5]decan-4-amine]	< 100 nM	< 100 nM	< 100 nM	47 nM	50 nM	10 nM
Nc1cc(Sc2cnc(N3CCC4(CCC[C@H]4N)CC3)n3ncnc23)c(Cl)c(Cl)n1 [(R)-8-(8-((6-amino-2,3-dichloropyridin-4-yl)thio)-[1,2,4]triazolo[1,5-c]pyrimidin-5-yl)-8-azaspiro[4.5]decan-1-amine]	100 to 1000 nM	100 to 1000 nM	100 to 1000 nM	–	–	–
CC1C[C@@H](N)C2(CCN(c3ncc(Sc4cccc(Cl)c4Cl)c4nccn34)CC2)C1 (stereo partly drawn) [(1R)-8-(8-((2,3-dichlorophenyl)thio)imidazo[1,2-c]pyrimidin-5-yl)-3-methyl-8-azaspiro[4.5]decan-1-amine]	< 100 nM	100 to 1000 nM	< 100 nM	53 nM	140 nM	11 nM
Cc1nccc(Sc2cnc(N3CCC4(CCC[C@H]4N)CC3)n3ccnc23)c1Cl [(R)-8-(8-((3-chloro-2-methyl-pyridin-4-yl)thio)imidazo[1,2-c]pyrimidin-5-yl)-8-azaspiro[4.5]decan-1-amine]	100 to 1000 nM	< 100 nM	< 100 nM	180 nM	58 nM	40 nM
C[C@@H]1OCC2(CCN(c3ncc(Sc4ccnc(N)c4Cl)c4nncn34)CC2)[C@@H]1N	–	100 to 1000 nM	< 100 nM	335 nM	102 nM	13 nM
N[C@@H]1CCCC12CCN(c1ncc(Sc3cccnc3C(F)(F)F)c3nncn13)CC2 [(R)-8-(8-((2-(trifluoromethyl)pyridin-3-yl)thio)-[1,2,4]triazolo[4,3-c]pyrimidin-5-yl)-8-azaspiro[4.5]decan-1-amine]	1000 to 10000 nM	100 to 1000 nM	100 to 1000 nM	–	–	–
N[C@@H]1CCCC12CCN(c1ncc(Sc3ccnnc3Cl)c3nccn13)CC2 [(R)-8-(8-((3-chloropyridazin-4-yl)thio)imidazo[1,2-c]pyrimidin-5-yl)-8-azaspiro[4.5]decan-1-amine]	100 to 1000 nM	100 to 1000 nM	100 to 1000 nM	–	–	–
